From PMC10534724, “Interaction of ALK Inhibitors with Polyspecific Organic Cation Transporters and the Impact of Substrate-Dependent Inhibition on the Prediction of Drug–Drug Interactions” (Pharmaceutics, 2023)
Like-named read-outs stand apart in the source and are kept apart here.

Legend:
Type in all cases: in vitro ADME
[1] = target: T1, hOCT1 (Homo sapiens, UniProt O15245); experiment: Inhibition of hOCT1-mediated substrate uptake in transfected HEK293 cells; settings: for In vivo DDI study recommendation, hOCT1: FDA-recommended criteria
T1 construct: expressed in transfected cells
T1 sequence (O15245 1-554): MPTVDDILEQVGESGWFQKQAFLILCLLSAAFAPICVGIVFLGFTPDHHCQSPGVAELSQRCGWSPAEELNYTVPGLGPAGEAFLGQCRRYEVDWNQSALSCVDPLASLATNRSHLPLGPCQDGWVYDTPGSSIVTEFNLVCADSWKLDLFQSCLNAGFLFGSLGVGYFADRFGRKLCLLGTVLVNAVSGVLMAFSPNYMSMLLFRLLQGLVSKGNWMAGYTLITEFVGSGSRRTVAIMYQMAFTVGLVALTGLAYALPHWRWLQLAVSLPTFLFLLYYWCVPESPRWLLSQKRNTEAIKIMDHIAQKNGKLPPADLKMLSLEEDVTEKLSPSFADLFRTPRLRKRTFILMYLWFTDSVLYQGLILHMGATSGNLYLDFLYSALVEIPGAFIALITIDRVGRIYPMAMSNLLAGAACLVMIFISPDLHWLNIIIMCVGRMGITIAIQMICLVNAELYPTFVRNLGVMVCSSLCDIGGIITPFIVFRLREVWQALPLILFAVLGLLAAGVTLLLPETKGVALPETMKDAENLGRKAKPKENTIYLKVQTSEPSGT

[2] = target: T2, hOCT3 (Homo sapiens, UniProt O75751); experiment: Inhibition of hOCT3-mediated substrate uptake in transfected HEK293 cells; settings: for In vivo DDI study recommendation, hOCT3: FDA-recommended criteria
T2 construct: expressed in transfected cells
T2 sequence (O75751 1-556): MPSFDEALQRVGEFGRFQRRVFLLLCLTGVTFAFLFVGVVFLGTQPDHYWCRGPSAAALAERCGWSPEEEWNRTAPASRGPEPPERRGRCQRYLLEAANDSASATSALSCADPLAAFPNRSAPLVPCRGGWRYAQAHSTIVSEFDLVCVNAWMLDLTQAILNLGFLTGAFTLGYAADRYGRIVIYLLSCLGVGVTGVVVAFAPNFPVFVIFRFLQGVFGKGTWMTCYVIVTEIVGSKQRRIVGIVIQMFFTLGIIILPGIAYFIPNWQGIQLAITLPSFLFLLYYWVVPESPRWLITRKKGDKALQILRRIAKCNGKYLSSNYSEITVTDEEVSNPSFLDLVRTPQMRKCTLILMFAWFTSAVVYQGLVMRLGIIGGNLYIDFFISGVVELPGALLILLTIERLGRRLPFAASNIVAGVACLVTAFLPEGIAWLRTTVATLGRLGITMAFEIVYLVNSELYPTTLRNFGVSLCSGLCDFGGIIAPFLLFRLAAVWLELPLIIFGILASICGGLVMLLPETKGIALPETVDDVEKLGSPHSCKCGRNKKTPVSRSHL

[3] = target: T3, hMATE1 (Homo sapiens, UniProt Q96FL8); experiment: Inhibition of hMATE1-mediated substrate uptake in transfected HEK293 cells (pH 8.0); settings: for In vivo DDI study recommendation, hMATE1: FDA-recommended criteria
T3 construct: expressed in transfected cells
T3 sequence (Q96FL8 1-570): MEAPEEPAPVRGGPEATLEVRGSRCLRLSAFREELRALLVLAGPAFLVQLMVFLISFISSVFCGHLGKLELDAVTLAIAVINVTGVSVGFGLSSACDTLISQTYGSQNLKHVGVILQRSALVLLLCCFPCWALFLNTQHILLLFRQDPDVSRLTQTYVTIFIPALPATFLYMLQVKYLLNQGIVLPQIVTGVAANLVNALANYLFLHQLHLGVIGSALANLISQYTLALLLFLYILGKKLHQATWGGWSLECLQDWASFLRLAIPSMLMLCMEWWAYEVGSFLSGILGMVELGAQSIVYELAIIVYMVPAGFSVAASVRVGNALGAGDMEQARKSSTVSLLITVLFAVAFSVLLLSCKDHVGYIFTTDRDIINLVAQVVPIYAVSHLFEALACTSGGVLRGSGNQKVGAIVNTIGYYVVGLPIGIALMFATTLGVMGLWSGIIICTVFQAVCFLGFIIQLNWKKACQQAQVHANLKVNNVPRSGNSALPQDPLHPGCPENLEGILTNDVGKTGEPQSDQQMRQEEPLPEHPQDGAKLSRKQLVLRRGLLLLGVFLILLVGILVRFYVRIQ

[4] = target: T4, hMATE2-K (Homo sapiens, UniProt Q86VL8); experiment: Inhibition of hMATE2-K-mediated substrate uptake in transfected HEK293 cells (pH 8.0); settings: for IC50: HEK293, 2 min, 37 °C, mean ± SD; for In vivo DDI study recommendation, hMATE2-K: FDA-recommended criteria
T4 construct: expressed in transfected cells
T4 sequence (Q86VL8 1-566 isoform Q86VL8-3): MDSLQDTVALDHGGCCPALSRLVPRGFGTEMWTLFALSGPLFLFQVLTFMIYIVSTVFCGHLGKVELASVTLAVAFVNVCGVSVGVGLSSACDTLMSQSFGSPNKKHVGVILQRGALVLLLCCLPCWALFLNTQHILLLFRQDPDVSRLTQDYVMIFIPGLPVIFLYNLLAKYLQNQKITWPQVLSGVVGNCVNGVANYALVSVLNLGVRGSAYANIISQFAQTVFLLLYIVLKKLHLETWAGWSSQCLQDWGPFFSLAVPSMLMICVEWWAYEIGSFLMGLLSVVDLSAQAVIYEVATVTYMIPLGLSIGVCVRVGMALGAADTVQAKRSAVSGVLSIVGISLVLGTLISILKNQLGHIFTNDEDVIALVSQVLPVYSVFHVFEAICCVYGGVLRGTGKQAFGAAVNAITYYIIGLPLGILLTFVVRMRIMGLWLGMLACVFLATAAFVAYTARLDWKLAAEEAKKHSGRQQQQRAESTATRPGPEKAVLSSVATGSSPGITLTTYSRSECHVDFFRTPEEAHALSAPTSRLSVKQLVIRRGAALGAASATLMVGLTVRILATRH

[5] = HEK293, 20 µM inhibitor, 1 µM mIBG, 2 min, 37 °C

Q: What does the source list for `COc1cc(N2CCC(N3CCN(C)CC3)CC2)ccc1Nc1ncc(Cl)c(Nc2ccccc2P(C)(C)=O)n1` [Brigatinib]?
A: IC50 [1]: 1.12 ± 0.04 µM; inhibition at 20 µM [1, 5]: > 50%; substrate dependency, hOCT1: more potent with metformin than with MPP+ ([1]; IC50 ratio MPP+/metformin): ~22 fold; substrate dependency, hOCT1: more potent with metformin than with mIBG ([1]; IC50 ratio mIBG/metformin): approximately 15 fold; IC50 ([1]; substrate 1 µM [3H]MPP+, HEK293, 2 min, 37 °C, mean ± SD, read-out: IC50, hOCT1-mediated MPP+ uptake): 25.1 ± 1.2 µM; IC50 ([1]; substrate 1 µM mIBG, HEK293, 2 min, 37 °C, mean ± SD, read-out: IC50, hOCT1-mediated mIBG uptake): 17.1 ± 0.6 µM; In vivo DDI study recommendation, hOCT1 ([1]; substrate MPP+): No; In vivo DDI study recommendation, hOCT1 ([1]; substrate mIBG): No; In vivo DDI study recommendation, hOCT1 ([1]; substrate metformin): Yes; IC50 [2]: 0.85 ± 0.07 µM; inhibition at 20 µM ([2]; HEK293, read-out: inhibition of mIBG uptake by hOCT3): > 80%; substrate dependency, hOCT3: differences in IC50 values across substrates ([2]; metformin, mIBG, MPP+): up to 3 fold; IC50 ([2]; substrate 1 µM [3H]MPP+, HEK293, 2 min, 37 °C, mean ± SD, read-out: IC50, hOCT3-mediated MPP+ uptake): 2.54 ± 0.14 µM; IC50 ([2]; substrate 1 µM mIBG, HEK293, 2 min, 37 °C, mean ± SD, read-out: IC50, hOCT3-mediated mIBG uptake): 1.2 ± 0.03 µM; In vivo DDI study recommendation, hOCT3 ([2]; substrate MPP+): Yes; In vivo DDI study recommendation, hOCT3 ([2]; substrate mIBG): Yes; In vivo DDI study recommendation, hOCT3 ([2]; substrate metformin): Yes; inhibition at 20 µM [3, 5]: > 80%; IC50 ([3]; IC50, hMATE1-mediated MPP+ uptake, substrate 1 µM [3H]MPP+, HEK293, 2 min, 37 °C, mean ± SD): 2.03 ± 0.24 µM; IC50 ([3]; IC50, hMATE1-mediated [14C]metformin uptake, Coincubation, coincubation (no preincubation), preincubation study, 8.9 µM [14C]metformin, 2 min uptake): 1.41 ± 0.06 µM; IC50 ([3]; IC50, hMATE1-mediated [14C]metformin uptake, Preincubation, 30-min preincubation with inhibitor at 37 °C, 8.9 µM [14C]metformin, 2 min uptake): 0.97 ± 0.09 µM; IC50 ([3]; IC50, hMATE1-mediated mIBG uptake, substrate 1 µM mIBG, HEK293, 2 min, 37 °C, mean ± SD): 1.93 ± 0.15 µM; IC50 ([3]; IC50, hMATE1-mediated metformin uptake, substrate 8.9 µM [14C]metformin, HEK293, 2 min, 37 °C, mean ± SD): 1.67 ± 0.14 µM; substrate dependency, hMATE1: differences in IC50 values across substrates ([3]; metformin, mIBG, MPP+): below two-fold; In vivo DDI study recommendation, hMATE1 ([3]; substrate MPP+): Yes; In vivo DDI study recommendation, hMATE1 ([3]; substrate mIBG): Yes; In vivo DDI study recommendation, hMATE1 ([3]; substrate metformin): Yes; substrate dependency, hMATE2-K: more potent with metformin than with mIBG ([4]; IC50 ratio mIBG/metformin): approximately 4 fold; IC50 ([4]; substrate 1 µM [3H]MPP+, read-out: IC50, hMATE2-K-mediated MPP+ uptake): > 300 µM; IC50 ([4]; substrate 8.9 µM [14C]metformin, read-out: IC50, hMATE2-K-mediated metformin uptake): 38.3 ± 1.7 µM; In vivo DDI study recommendation, hMATE2-K ([4]; substrate MPP+): No; In vivo DDI study recommendation, hMATE2-K ([4]; substrate mIBG): No; In vivo DDI study recommendation, hMATE2-K ([4]; substrate metformin): No
